According to patent US20100160208A1, “Pharmaceutical composition” (Antisense Pharma GmbH, priority 2003, published 2010):

Tests used:
[1] = test system: pancreatic cancer cell line Hup-T3; assay: Cell-mediated cytotoxicity (CARE-LASS) assay, LAK effector cells on Hup-T3 target cells; format: cell-based; settings: FIG. 6; effector:target 10:1; Seq. Id. No. 30 5 microM; gemzar 20 μg/ml
Method: Cell-mediated cytotoxicity was quantified by the […] assay (Lichtenfels et al. 1994) using the NSCLC (non small cell lung carcinoma cell) line NCI-H661, the glioma cell line A-172, and the pancreatic cancer cell line Hup-T3 as target cells. […] Id. No. 14. […] Id. […] Additionally, for Hup-T3 cells 3 μg/ml Lipofectin® were used to enhance cellular uptake of the PTO. Untreated cells and cells treated with 3 μg/ml Lipofectin® were used as controls. Lymphokine activated killer cells (LAK cells) were used as effector cells. […] The other part of cells was incubated without additional treatment. Effector cells were incubated with the target cells with and without cytostatic drugs for 4 h. The supraaditive effect respectively the inhibition was calculated by subtracting the specific cell lysis, of the control from the specific cell lysis of the chemotherapeutic agent. Taking into account the sign this difference is summed up with the specific lysis of the inhibitor of TGF-beta, as depicted in the figures. In case the specific lysis of the combination of a chemotherapeutic agent with the TGF-beta inhibitor was higher than this sum, this was interpreted as supraaditive effect. In case the specific lysis of this combination was smaller than the sum this was interpreted as inhibition.

glioma cell line A-172 = assay: Cell-mediated cytotoxicity (CARE-LASS) assay, LAK effector cells on A-172 target cells; format: cell-based; settings: Seq. Id. No. 30 5 microM
Method: (§1) Cell-mediated cytotoxicity was quantified by the CARE-LASS assay (Lichtenfels et al. 1994) using the NSCLC (non small cell lung carcinoma cell) line NCI-H661, the glioma cell line A-172, and the pancreatic cancer cell line Hup-T3 as target cells. NCI-H661 cells were pretreated with 5 μM TGF (transforming growth factor)-beta 1 specific antisense phosphorothioate oligodeoxynucleotide (PTO) Seq. Id. No. 14. A-172 and Hup-T3 cells were pretreated with 5 μM TGF-beta 2 specific antisense phosphorothioate oligodeoxynucleotide Seq. Id. No. 30 in medium at 5% CO2 and 37° C. for 3 days according to the cell line suppliers' instructions. Additionally, for Hup-T3 cells 3 μg/ml Lipofectin® were used to enhance cellular uptake of the PTO. Untreated cells and cells treated with 3 μg/ml Lipofectin® were used as controls.
Lymphokine activated killer cells (LAK cells) were used as effector cells. LAK cells were generated by a 3 day pretreatment of 5×10^6 PBMC from healthy volunteers with 10 ng/ml rh IL-2 (recombinant human interleukin 2) in 4 ml RPMI 1640 medium supplemented with 10% fetal calf serum at 5% CO2 and 37° C. One part of the effector cells was incubated additionally with rh TGF-[…] to mimic the presence of tumor cells ([…] rh TGF-[…]1 for NCI-H661, […] rh TGF-[…]2 for A-172 and Hup-T3). The other part of cells was incubated without additional treatment.
Effector cells were incubated with the target cells with and without cytostatic drugs for 4 h. The supraaditive effect respectively the inhibition was calculated by subtracting the specific cell lysis, of the control from the specific cell lysis of the chemotherapeutic agent. Taking into account the sign this difference is summed up with the specific lysis of the inhibitor of TGF-beta, as depicted in the figures. In case the specific lysis of the combination of a chemotherapeutic agent with the TGF-beta inhibitor was higher than this sum, this was interpreted as supraaditive effect. In case the specific lysis of this combination was smaller than the sum this was interpreted as inhibition.

[2] = test system: NSCLC (non small cell lung carcinoma cell) line NCI-H661; assay: Cell-mediated cytotoxicity (CARE-LASS) assay, LAK effector cells on NCI-H661 target cells; format: cell-based; settings: FIG. 9; effector:target 1.25:1; Seq. Id. No. 14 5 microM; taxotere 0.37 μg/ml
Method: as §1
Lymphokine activated killer cells (LAK cells) were used as effector cells. LAK cells were generated by a 3 day pretreatment of 5×10^6 PBMC from healthy volunteers with 10 ng/ml rh IL-2 (recombinant human interleukin 2) in 4 ml RPMI 1640 medium supplemented with 10% fetal calf serum at 5% CO2 and 37° C. […]
Effector cells were incubated with the target cells with and without cytostatic drugs for 4 h. The supraaditive effect respectively the inhibition was calculated by subtracting the specific cell lysis, of the control from the specific cell lysis of the chemotherapeutic agent. […]

[3] = test system: anaplastic astrocytoma, WHO grade III; assay: Clinical phase I/II study, intratumoral Seq. Id. No. 30 in patients with anaplastic astrocytoma; format: in vivo, human
Text: (§2) Clinical studies represented herein were primarily designed as safety studies and were approved by the local ethic committees and performed in accordance with the current international declaration of Helsinki for human experimentation and GCP and had to sign a written informed consent prior to recruitment.
(§3) The treatment with the antineoplastic agent followed routine schedules if nothing else is mentioned. Before the treatment with an TGF-beta antagonist, the antisense oligonucleotide of TGF-beta, with Seq. No. 30 the patients were selected according to the following criteria.
(§4) Patients had high grade gliom, either anaplastic astrocytome, WHO grade III, or glioblastoma, WHO grade IV, refractory to or recurrent after standard therapy (surgery, radiotherapy and different therapies with antineoplastic substances). Patients had not received antineoplastic agents within 10 days prior to the administration of the antagonist. Patients were between 18 and 75 years old. Karnofsky performance status (KPS) was at least 70%. Patients with clinically significant acute infections, cardiovascular abnormalities or poorly controlled seizures and pregnant and lactating females were excluded.
(§5) Surgical planning was based on computer tomography or magnetic resonance images. The perforated part of the catheter was placed in the solid, enhancing area of the tumor. Ventricles, cysts, resection cavities from prior surgical interventions, blood vessels and eloquent brain areas had to be avoided by the catheter trajectory. The catheter was introduced through a standard burr hole into the center of the largest tumor lesion. The distal end of the catheter was passed several centimetres under the galea through the skin and filled with saline. TGF-beta 2 specific antisense oligonucleotide with Seq. Id. No. 30 was administered intratumorally as a continuous high-flow microperfusion using an external pump system, Graseby 3200 (Smith Medical, London, GBM). The application system was removed after the end of the infusion. For safety assessment patients were followed up for 28 days. Post-study MRI and survival data until death were collected by the investigators.
Comparison of survival data of patients treated with antineoplastic agents in combination with antagonists of factors negatively influencing the immune system (here: an antisense oligonucleotide of TGF-beta with the sequence Id. No. 30) to literature data for treatment with antineoplastic alone. Survival time is given from start of first chemotherapy after tumor recurrence. Median overall survival time of all patients treated with antineoplastic agents and TGF-beta 2 specific antisense oligonucleotide with Seq. Id. No. 30 (anaplastic astrocytom: 8 patients, glioblastoma, 23 patients) are compared to the most current literature data (Theodosopoulos, P. V. et al. 2001).
Reduction of tumor volumes of patients 04 and 17 was more than 80%. Tumor volume was assessed by measurement of the largest cross-sectional diameter of the enhancing lesion in the first layer and the largest cross-sectional diameter perpendicular to the first in the same plane and layer. For the third dimension, the largest cross-sectional diameter of all further planes perpendicular to the first one was determined.

[4] = test system: glioblastoma, WHO grade IV; assay: Clinical phase I/II study, intratumoral Seq. Id. No. 30 in patients with glioblastoma; format: in vivo, human
Text: as §2, §3, §4
as §5, with “Post-study MRI and survival data until death were collected by the investigators.” left out

[5] = FIG. 10, effector:target 5:1, procarbacine 3 nmol/ml
[6] = FIG. 8, effector:target 2.5:1, vincristine 0.04 μmol/ml
[7] = FIG. 4, effector:target 20:1, BCNU 4 μM
[8] = FIG. 5, effector:target 1.25:1, CCNU 10 μM
[9] = FIG. 7, effector:target 10:1, temozolomide 50 μM
[10] = calculated after start of chemotherapy, patients treated with antineoplastic agents and Seq. Id. No. 30
[11] = oligonucleotide following chemotherapy (mainly temozolomide)

## Nc1ccn([C@@H]2O[C@H](CO)[C@@H](O)C2(F)F)c(=O)n1 [gemzar, reference compound]
[1]
  specific lysis of tumor cells: 34.5%

## CNNCc1ccc(C(=O)NC(C)C)cc1 [procarbacine, reference compound]
Glioma cell line A-172; [5]
  specific lysis of tumor cells: 6.1%

## CC[C@]1(O)C[C@H]2CN(CCc3c([nH]c4ccccc34)[C@@](C(=O)OC)(c3cc4c(cc3OC)N(C=O)[C@H]3[C@@](O)(C(=O)OC)[C@H](OC(C)=O)[C@]5(CC)C=CCN6CC[C@]43[C@@H]65)C2)C1 [vincristine, reference compound]
Glioma cell line A-172; [6]
  specific lysis of tumor cells: 12.6%

## O=NN(CCCl)C(=O)NCCCl [BCNU, N,N′-bis(2-chlorethyl)-N-nitroso-urea, reference compound]
Glioma cell line A-172; [7]
  specific lysis of tumor cells: 15.6%

## CC(=O)O[C@@]12CO[C@@H]1C[C@H](O)[C@@]1(C)C(=O)[C@H](O)C3=C(C)[C@@H](OC(=O)[C@H](O)[C@@H](NC(=O)OC(C)(C)C)c4ccccc4)C[C@@](O)([C@@H](OC(=O)c4ccccc4)[C@H]21)C3(C)C [taxotere, reference compound]
[2]
  specific lysis of tumor cells: 30.5%

## O=NN(CCCl)C(=O)NC1CCCCC1 [CCNU, 1-(2-Chloroethyl)-3-cyclohexyl-1-nitrosourea, reference compound]
Glioma cell line A-172; [8]
  specific lysis of tumor cells: 0.5%

## CGGCATGTCTATTTTGTA [Seq. Id. No. 30]
Glioma cell line A-172; [7]
  specific lysis of tumor cells: 29.4%
Glioma cell line A-172; [8]
  specific lysis of tumor cells: 4.4%
Glioma cell line A-172; [9]
  specific lysis of tumor cells: 39.2%
Glioma cell line A-172; [6]
  specific lysis of tumor cells: 13.9%
[1]
  specific lysis of tumor cells: 59.5%
[3]; 1. Example, one patient, 21 months after first application, assessed by 3 independent specialists
  tumor response: complete response
[3]; 1. Example, one patient, one cycle 10 μM, 4 μL/min, 1.42 mg in 4 days intratumorally after ACNU/tenoposide, temozolomide, Caelyx
  overall survival after first recurrence: 195 weeks
[3]; 1. Example, one patient, one cycle intratumorally after prior chemotherapy
  overall survival after diagnosis of anaplastic astrocytoma: 208 weeks
[3]; 2. Example, one patient, magnetic resonance image 19.4 months after start of oligonucleotide treatment, central reading, partial response
  tumor reduction: 83%
[3]; FIG. 3, Seq. Id. No. 30 following temozolomide, from start of first chemotherapy after tumor recurrence, 3 patients
  median overall survival time: 146.6 weeks
[3]; all anaplastic astrocytoma patients
  mean overall survival: 90 weeks
[3]; [10]
  median overall survival in our study: 147 weeks
[3]; combination of Seq. Id. No. 30 and at least one further antineoplastic agent (e.g. temozolomide)
  mean overall survival: 146.6 weeks
[3]; [11]
  median overall survival times: about 147 weeks
[3]; patients 04 and 17
  Reduction of tumor volumes: more than 80%
[4]; FIG. 3, Seq. Id. No. 30 following temozolomide, from start of first chemotherapy after tumor recurrence, 10 patients
  median overall survival time: 45.1 weeks
[4]; [10]
  median overall survival in our study: 42.4 weeks
[4]; [11]
  median overall survival times: 45 weeks

## Cn1nnc2c(C(N)=O)ncn2c1=O [temozolomide, 3,4-dihydro-3-methyl-4-oxoimidazo->5,1d′1,2,3,4-tetrazin-8-carboximide, reference compound]
Glioma cell line A-172; [9]
  specific lysis of tumor cells: 31.3%

## CTGATGTGTTGAAGAACA (chemistry not given here) [Seq. Id. No. 14]
Glioma cell line A-172; [5]
  specific lysis of tumor cells: 16.4%
[2]
  specific lysis of tumor cells: 65.3%
